In patent US20040260060A1, “Constructs modified downstreams of the initiation codon for recombinant protein” (priority 2000, published 2004):

Experiments:
TOP10 x pTEXCAT bacteria = test: Chloramphenicol resistance of TOP10 x pTEXCAT bacteria on agar dishes, colony count and growth; format: cell-based, E. coli; parameters: key to qualitative criterion of colony growth: −: absence of growth; +++: maximum growth; details: for number of colonies counted: 18 h at 37° C., approximately 100 cells seeded
Experimental: The libraries are screened based on the hypothesis that the clones overexpressing the CAT enzyme will have increased resistance to chloramphenicol.
The numbers (upper row) indicate the number of colonies counted after incubation for 18 h at 37° C., each medium having been seeded with approximately 100 cells.
The index of the lower row is a qualitative criterion of colony growth (−=absence of growth to +++=maximum growth).
This implies that clones which overproduce CAT due to an optimized RBS region may either develop more rapidly than the wild-type population at a chloramphenicol concentration lower than the MIC (mininimum inhibitory concentration), or develop in the presence of chloramphenicol concentrations which are lethal for the wild-type population.

[1] = system: chloramphenicol acetyltransferase (CAT) reporter gene; test: Level of CAT expression by ELISA after IAA induction in Erlenmeyer flask cultures; format: cell-based, E. coli; details: for CAT expression: relative to wild-type vector pTEXwt = 1
Source text: The supernatant is marked “S”.
The results (mean±standard deviation) were obtained on two independent experiments. […]
The methods for determining the expression are those used in the examples above.

[2] = system: chloramphenicol acetyltransferase (CAT); details: IAA-induced extracts
Source text: The resistant colonies are isolated and subcultured several times on the selection medium in order to confirm their resistance phenotype. The clones selected at this stage are then subjected to a series of analyses: (i) extraction of the plasmid (Qiagen kit, Hilden, Germany) and sequencing of the region covering the RBS, (ii) culturing in Erlenmeyer flasks with induction by IAA and then estimation of the level of CAT expression by ELISA assay, (iii) electrophoresis, by SDS-PAGE, of the total proteins extracted from the preceding cultures and staining with Coomassie Blue to visualize total intracellular proteins. The clones are sequenced using the Dye Terminator kit on an ABI 373A sequencer (Perkin Elmer Applied Biosystems, Foster City, Calif.). The cultures in Erlenmeyer flasks are prepared by seeding 25 ml of TSBY (30 g/l tryptic soy broth (DIFCO)+5 g/l yeast extract (Difco)) medium+8 mg/l tetracycline with a colony on a dish or with a bacterial suspension stored at −80° C. Each preculture is incubated on a platform shaken at 200 rpm, at 37° C. overnight. A fraction is transferred into 50 ml of the same medium so as to reach an initial optical density equal to 1. […] The total proteins contained in the I and S fractions are analyzed by electrophoresis under denaturing conditions (SDS-PAGE) and staining with Coomassie Blue.

[3] = chloramphenicol 200 μg/ml, IAA = 0
[4] = chloramphenicol 200 μg/ml, IAA = 25 μg/ml
[5] = chloramphenicol 300 μg/ml, IAA = 25 μg/ml
[6] = chloramphenicol 600 μg/ml, IAA = 0
[7] = chloramphenicol 600 μg/ml, IAA = 25 μg/ml
[8] = chloramphenicol 700 μg/ml, IAA = 0
[9] = chloramphenicol 700 μg/ml, IAA = 25 μg/ml
[10] = chloramphenicol 800 μg/ml, IAA = 0
[11] = chloramphenicol 800 μg/ml, IAA = 25 μg/ml

O=C(N[C@H](CO)[C@H](O)c1ccc([N+](=O)[O-])cc1)C(Cl)Cl [Chloramphenicol, chloramphenicol]
qualitative criterion of colony growth (TOP10 x pTEXCAT bacteria; [3]): +++
number of colonies counted (TOP10 x pTEXCAT bacteria; [3]): 91
qualitative criterion of colony growth (TOP10 x pTEXCAT bacteria; [4]): +++
number of colonies counted (TOP10 x pTEXCAT bacteria; [4]): 65
number of colonies counted (TOP10 x pTEXCAT bacteria; chloramphenicol 300 μg/ml, IAA = 0): 74
qualitative criterion of colony growth (TOP10 x pTEXCAT bacteria; [5]): +++
number of colonies counted (TOP10 x pTEXCAT bacteria; [5]): 76
number of colonies counted (TOP10 x pTEXCAT bacteria; chloramphenicol 400 μg/ml, IAA = 0): 73
number of colonies counted (TOP10 x pTEXCAT bacteria; chloramphenicol 400 μg/ml, IAA = 25 μg/ml): 53
number of colonies counted (TOP10 x pTEXCAT bacteria; chloramphenicol 500 μg/ml, IAA = 0): 47
number of colonies counted (TOP10 x pTEXCAT bacteria; chloramphenicol 500 μg/ml, IAA = 25 μg/ml): 71
qualitative criterion of colony growth (TOP10 x pTEXCAT bacteria; [6]): −
number of colonies counted (TOP10 x pTEXCAT bacteria; [6]): 0
qualitative criterion of colony growth (TOP10 x pTEXCAT bacteria; [7]): −
number of colonies counted (TOP10 x pTEXCAT bacteria; [7]): 1
qualitative criterion of colony growth (TOP10 x pTEXCAT bacteria; [8]): −
number of colonies counted (TOP10 x pTEXCAT bacteria; [8]): 0
qualitative criterion of colony growth (TOP10 x pTEXCAT bacteria; [9]): −
number of colonies counted (TOP10 x pTEXCAT bacteria; [9]): 0
qualitative criterion of colony growth (TOP10 x pTEXCAT bacteria; [10]): −
number of colonies counted (TOP10 x pTEXCAT bacteria; [10]): 0
qualitative criterion of colony growth (TOP10 x pTEXCAT bacteria; [11]): −
number of colonies counted (TOP10 x pTEXCAT bacteria; [11]): 0

O=C(O)C=Cc1c[nH]c2ccccc12 [IAA, 3-β indole acrylic acid]
development of TOP10 x pTEXCAT bacteria in the presence of IAA versus its absence (TOP10 x pTEXCAT bacteria; between 300 and 600 μg/ml of chloramphenicol): more strongly

pTEX9′: clone from the (R7N6) library, SEQ ID No. 31, deletion of region Ile4Asn8 (DNA UGAGGAGAGUAAUCAUGAAAGCAGCGGAAUUC; expressed or natural sequence)
CAT expression [1]: 249

pTEX10′: vector derived from pTEX9′ with additional deletion, SEQ ID No. 33 (DNA UGAGGAGAGUAAUCAUGAAAGCAGAAUUC)
CAT expression [1]: 253

pTEX11′: vector derived from pTEX9′ with additional deletion, SEQ ID No. 35 (DNA UGAGGAGAGUAAUCAUGAAAGAAUUC)
CAT expression [1]: 124

pTEX12′: vector derived from pTEX9′, initiation codon directly upstream of the cloning site, SEQ ID No. 37 (DNA UGAGGAGAGUAAUCAUGGAAUUC)
CAT expression [1]: 155

pTEXCAT: wild-type reference plasmid: pTEXmp18 (Ptrp promoter, TrpL leader) with the CAT reporter gene cloned at EcoRI/PstI; SEQ ID No. 19 (DNA AAGGGUAUCUAGAAUUAUGAAAGCAAUUUUCGUACUGAAUGCGGAAUUC)
CAT band (28 kDa) on SDS-PAGE gel [2]: only a band of low intensity
CAT expression [1]: 1
Level of CAT expression ([1]; relative, level 1 arbitrarily assigned to pTEXCAT, mean±standard deviation of two independent experiments): 1
